The values that follow come from patent US9844550B2, “Phtalazinone derivatives and manufacturing process thereof” (ILDONG PHARM CO., LTD., priority 2013, dated 2017).

For the assay, the system named is MDA-MB-436 breast cancer cell line. As to the kind of experiment: Cell viability assay (MDA-MB-436). The class given is cell-based. Conditions: Homo sapiens, 144 h; MDA-MB-436 cells, treated 6 days. As to the method:
2. Cell Viability Assay (MDA-MB-436)
Cell viability assay was performed by using MDA-MB-436 cell line to measure cytotoxicity of compounds in the present invention. MDA-MB-436 breast cancer cell line was seeded into 96-well plates at 37° C. under 5% CO2 atmosphere using DMEM/F12 (Gibco) containing 10% FBS (Hyclone). After 24 hr incubation, cells were treated with the invented compounds at various concentrations for 6 days. The medium was changed every 3 day. 6 days later, A fluorescence reagent was used to determine the IC50 values.
By IC50 is commonly meant the concentration at which inhibition is half-maximal. Read a high IC50 as a need for much substance. As for `CCCC(C)NC1CN(C(=O)c2cc(Cc3n[nH]c(=O)c4ccccc34)ccc2F)C1` (centres unmarked) [Compound I-48, 4-(4-fluoro-3-(3-(pentan-2-ylamino)azetidine-1-carbonyl)benzyl)phthalazin-1(2H)-one], the IC50 is ≤ 5 nM.
In turn, `CN(Cc1cccnc1)C1CN(C(=O)c2cc(Cc3n[nH]c(=O)c4ccccc34)ccc2F)C1` [Compound I-66, 4-(4-fluoro-3-(3-(methyl(pyridin-3-ylmethyl)amino)azetidine-1-carbonyl)benzyl)phthalazin-1(2H)-one] had an IC50 of 50 to 300 nM.
Then `O=C(c1cc(Cc2n[nH]c(=O)c3ccccc23)ccc1F)N1CC(NC2(C(F)(F)F)CCC2)C1` [Compound I-104, 4-(4-fluoro-3-(3-((1-(trifluoromethyl)cyclobutyl)amino)azetidine-1-carbonyl)benzyl)phthalazin-1(2H)-one], with 300 to 1000 nM; and `O=C(c1cc(Cc2n[nH]c(=O)c3ccccc23)ccc1F)N1CC[C@@H](Nc2nccs2)C1` [Compound I-124, (R)-4-(4-fluoro-3-(3-(thiazol-2-ylamino)pyrrolidine-1-carbonyl)benzyl)phthalazin-1(2H)-one], with 50 to 300 nM.
Then `C=C(C)CNC1CN(C(=O)c2cc(Cc3n[nH]c(=O)c4ccccc34)ccc2F)C1` [Compound I-92, 4-(4-fluoro-3-(3-((2-methylallyl)amino)azetidine-1-carbonyl)benzyl)phthalazin-1(2H)-one], with 5 to 50 nM.
In turn, `N#CC1(CNC2CN(C(=O)c3cc(Cc4n[nH]c(=O)c5ccccc45)ccc3F)C2)CC1` [Compound I-94, 1-(((1-(2-fluoro-5-((4-oxo-3,4-dihydrophthalazin-1-yl)methyl)benzoyl)azetidin-3-yl)amino)methyl)cyclopropanecarbonitrile] displayed an IC50 of 300 to 1000 nM.
`CN(C)C(=O)c1cccnc1N[C@@H]1CCN(C(=O)c2cc(Cc3n[nH]c(=O)c4ccccc34)ccc2F)C1` [Compound I-129, (R)-2-((1-(2-fluoro-5-((4-oxo-3,4-dihydrophthalazin-1-yl)methyl)benzoyl)pyrrolidin-3-yl)amino)-N,N-dimethylnicotinamide] came in with an IC50 of 300 to 1000 nM.
`C=CCNC1CN(C(=O)c2cc(Cc3n[nH]c(=O)c4ccccc34)ccc2F)C1` [Compound I-51, 4-(3-(3-(allylamino)azetidine-1-carbonyl)-4-fluorobenzyl)phthalazin-1(2H)-one] gave an IC50 of 5 to 50 nM.
Then `O=C(c1cc(Cc2n[nH]c(=O)c3ccccc23)ccc1F)N1CC[C@H](Nc2ncccn2)C1` [Compound I-110, (S)-4-(4-fluoro-3-(3-(pyrimidin-2-ylamino)pyrrolidine-1-carbonyl)benzyl)phthalazin-1(2H)-one], with 300 to 1000 nM.
Turning to `O=C(c1cc(Cc2n[nH]c(=O)c3ccccc23)ccc1F)N1CC[C@@H](Nc2ccc(Cl)nn2)C1` [Compound I-118, (R)-4-(3-(3-((6-chloropyridazin-3-yl)amino)pyrrolidine-1-carbonyl)-4-fluorobenzyl)phthalazin-1(2H)-one], the IC50 lay in the range of 300 to 1000 nM.
To `CCN(C1CC1)C1CN(C(=O)c2cc(Cc3n[nH]c(=O)c4ccccc34)ccc2F)C1` [Compound I-70, 4-(3-(3-(cyclopropyl(ethyl)amino)azetidine-1-carbonyl)-4-fluorobenzyl)phthalazin-1(2H)-one] belongs 50 to 300 nM.
For `CC(C)C(C#N)NC1CN(C(=O)c2cc(Cc3n[nH]c(=O)c4ccccc34)ccc2F)C1` (centres unmarked) [Compound I-102, 2-((1-(2-fluoro-5-((4-oxo-3,4-dihydrophthalazin-1-yl)methyl)benzoyl)azetidin-3-yl)amino)-3-methylbutanenitrile], the IC50 lay in the range of 300 to 1000 nM.
To `CCOC(=O)C1=C(NC2CN(C(=O)c3cc(Cc4n[nH]c(=O)c5ccccc45)ccc3F)C2)CCC1` [Compound I-39, ethyl 2-((1-(2-fluoro-5-((4-oxo-3,4-dihydrophthalazin-1-yl)methyl)benzoyl)azetidin-3-yl)amino)cyclopent-1-enecarboxylate] belongs 300 to 1000 nM; to `CN(Cc1ccncc1)[C@@H]1CCN(C(=O)c2cc(Cc3n[nH]c(=O)c4ccccc34)ccc2F)C1` [Compound I-61, (R)-4-(4-fluoro-3-(3-(methyl(pyridin-4-ylmethyl)amino)pyrrolidine-1-carbonyl)benzyl)phthalazin-1(2H)-one], 50 to 300 nM.
Then `CC1(NC2CN(C(=O)c3cc(Cc4n[nH]c(=O)c5ccccc45)ccc3F)C2)CC1` [Compound I-85, 4-(4-fluoro-3-(3-((1-methylcyclopropyl)amino)azetidine-1-carbonyl)benzyl)phthalazin-1(2H)-one], with ≤ 5 nM; and `CN1CCN(C2CN(C(=O)c3cc(Cc4n[nH]c(=O)c5ccccc45)ccc3F)C2)CC1` [Compound I-78, 4-(4-fluoro-3-(3-(4-methylpiperazin-1-yl)azetidine-1-carbonyl)benzyl)phthalazin-1(2H)-one], with 300 to 1000 nM.
Compound `CC1(C)NC(=O)N(C2CN(C(=O)c3cc(Cc4n[nH]c(=O)c5ccccc45)ccc3F)C2)C1=O` [Compound I-14, 3-(1-(2-fluoro-5-((4-oxo-3,4-dihydrophthalazin-1-yl)methyl)benzoyl)azetidin-3-yl)-5,5-dimethylimidazolidine-2,4-dione] registered an IC50 of 50 to 300 nM.
To `CCN(c1ncccn1)[C@@H]1CCN(C(=O)c2cc(Cc3n[nH]c(=O)c4ccccc34)ccc2F)C1` [Compound I-121, (R)-4-(3-(3-(ethyl(pyrimidin-2-yl)amino)pyrrolidine-1-carbonyl)-4-fluorobenzyl)phthalazin-1(2H)-one] belongs 300 to 1000 nM; to `C#CCN(CC1CN(C(=O)c2cc(Cc3n[nH]c(=O)c4ccccc34)ccc2F)C1)C1CC1` [Compound I-153, 4-(3-(3-((cyclopropyl(prop-2-yn-1-yl)amino)methyl)azetidine-1-carbonyl)-4-fluorobenzyl)phthalazin-1(2H)-one], 300 to 1000 nM.
To `CC(C)=CCNC1CN(C(=O)c2cc(Cc3n[nH]c(=O)c4ccccc34)ccc2F)C1` [Compound I-54, 4-(4-fluoro-3-(3-((3-methylbut-2-en-1-yl)amino)azetidine-1-carbonyl)benzyl)phthalazin-1(2H)-one] belongs 5 to 50 nM.
To `O=C(c1cc(Cc2n[nH]c(=O)c3ccccc23)ccc1F)N1CC[C@@H](N2CCCC2)C1` [Compound I-136, (R)-4-(3-([1,3′-bipyrrolidine]-1′-carbonyl)-4-fluorobenzyl)phthalazin-1(2H)-one] belongs 5 to 50 nM; to `CC(NC1CN(C(=O)c2cc(Cc3n[nH]c(=O)c4ccccc34)ccc2F)C1)C1(C)CC1` (centres unmarked) [Compound I-49, 4-(4-fluoro-3-(3-((1-(1-methylcyclopropyl)ethyl)amino)azetidine-1-carbonyl)benzyl)phthalazin-1(2H)-one], 5 to 50 nM; to `O=C(c1cc(Cc2n[nH]c(=O)c3ccccc23)ccc1F)N1CC(NC(C2CC2)C2CC2)C1` [Compound I-45, 4-(3-(3-((dicyclopropylmethyl)amino)azetidine-1-carbonyl)-4-fluorobenzyl)phthalazin-1(2H)-one], 5 to 50 nM.
As for `CN(c1cccnn1)[C@H]1CCN(C(=O)c2cc(Cc3n[nH]c(=O)c4ccccc34)ccc2F)C1` [Compound I-113, (S)-4-(4-fluoro-3-(3-(methyl(pyridazin-3-yl)amino)pyrrolidine-1-carbonyl)benzyl)phthalazin-1(2H)-one], the IC50 was 300 to 1000 nM.
`CN(c1ccc(Cl)nn1)[C@H]1CCN(C(=O)c2cc(Cc3n[nH]c(=O)c4ccccc34)ccc2F)C1` [Compound I-111, (S)-4-(3-(3-((6-chloropyridazin-3-yl)(methyl)amino)pyrrolidine-1-carbonyl)-4-fluorobenzyl)phthalazin-1(2H)-one]: the IC50 is 300 to 1000 nM.
To `C#CCCNC1CN(C(=O)c2cc(Cc3n[nH]c(=O)c4ccccc34)ccc2F)C1` [Compound I-91, 4-(3-(3-(but-3-yn-1-ylamino)azetidine-1-carbonyl)-4-fluorobenzyl)phthalazin-1(2H)-one] belongs 50 to 300 nM; to `O=C(c1cc(Cc2n[nH]c(=O)c3ccccc23)ccc1F)N1CC(Nc2ncccn2)C1` [Compound I-109, 4-(4-fluoro-3-(3-(pyrimidin-2-ylamino)azetidine-1-carbonyl)benzyl)phthalazin-1(2H)-one], 300 to 1000 nM; to `N#CC(NC1CN(C(=O)c2cc(Cc3n[nH]c(=O)c4ccccc34)ccc2F)C1)C1CC1` (centres unmarked) [Compound I-103, 2-cyclopropyl-2-((1-(2-fluoro-5-((4-oxo-3,4-dihydrophthalazin-1-yl)methyl)benzoyl)azetidin-3-yl)amino)acetonitrile], 300 to 1000 nM.
`C[C@@H](NC1CN(C(=O)c2cc(Cc3n[nH]c(=O)c4ccccc34)ccc2F)C1)C(C)(C)C` [Compound I-86, (R)-4-(3-(3-((3,3-dimethylbutan-2-yl)amino)azetidine-1-carbonyl)-4-fluorobenzyl)phthalazin-1(2H)-one] displayed an IC50 of 5 to 50 nM.
To `O=C(c1cc(Cc2n[nH]c(=O)c3ccccc23)ccc1F)N1CC(N(c2ncccn2)C2CCC2)C1` [Compound I-116, 4-(3-(3-(cyclobutyl(pyrimidin-2-yl)amino)azetidine-1-carbonyl)-4-fluorobenzyl)phthalazin-1(2H)-one] belongs 300 to 1000 nM; to `CC(C)(CO)CNC1CN(C(=O)c2cc(Cc3n[nH]c(=O)c4ccccc34)ccc2F)C1` [Compound I-93, 4-(4-fluoro-3-(3-((3-hydroxy-2,2-dimethylpropyl)amino)azetidine-1-carbonyl)benzyl)phthalazin-1(2H)-one], 50 to 300 nM; to `O=C(c1cc(Cc2n[nH]c(=O)c3ccccc23)ccc1F)N1CC(Nc2ccccc2)C1` [Compound I-79, 4-(4-fluoro-3-(3-(phenylamino)azetidine-1-carbonyl)benzyl)phthalazin-1(2H)-one], 50 to 300 nM.
